From patent US20220265685A1, “METHODS AND COMPOSITIONS FOR IMPROVING COGNITIVE FUNCTION” (priority 2010, published 2022)
Where two headings read alike, the source gives them in different places.

Columns and labels:
aged-impaired (AI) rats = assay: Radial Arm Maze (RAM) task, spatial memory retention of aged-impaired rats; format: in vivo, Long-Evans rats
Protocol: FIG. 1 depicts the effects of administering levetiracetam on the spatial memory retention of ten aged-impaired rats (AI) in an eight-arm Radial Arm Maze (RAM) test. Six treatment conditions are employed: vehicle control, levetiracetam (1.25 mg/kg/day), levetiracetam (2.5 mg/kg/day), levetiracetam (5 mg/kg/day), levetiracetam (10 mg/kg/day) and levetiracetam (20 mg/kg/day). In the RAM task used, there is a one-hour delay between presentation of a subset of arms (5 arms available and 3 arms blocked) and completion of the eight-arm win-shift task (eight arms available). Rats are pre-treated 30-40 minutes before daily trials with a one-time drug/control treatment. The number of errors made by the rats during the retention phase is used as a measure of spatial memory retention. Errors are defined as instances when rats enter an arm from which food has already been retrieved in the pre-delay component of the trial or when rats re-visit an arm in the post-delay session that had already been visited. Paired t-tests are used to compare the number of errors between different doses of levetiracetam and vehicle control.
FIG. 2 depicts the effects of administering donepezil only and administering a combination of donepezil and levetiracetam on the spatial memory retention of eight aged-impaired rats (AI) in an eight-arm Radial Arm Maze (RAM) test. Four treatment conditions are employed: vehicle control, donepezil only (1 mg/kg/day), donepezil (2 mg/kg/day), and a combination of donepezil (1 mg/kg/day) and levetiracetam (2.5 mg/kg/day). In the RAM task used, there is a two-hour delay between presentation of a subset of arms (5 arms available and 3 arms blocked) and completion of the eight-arm win-shift task (eight arms available). Rats are pre-treated 30-40 minutes before daily trials with a one-time drug/control treatment. The number of errors made by the rats during the retention phase is used as a measure of spatial memory retention. Errors are defined as instances when rats enter an arm from which food has already been retrieved in the pre-delay component of the trial or when rats re-visit an arm in the post-delay session that have already been visited. Paired t-tests are used to compare the number of errors between different doses of drug treatment and vehicle control.
Aged, male Long-Evans rats were obtained at 8 to 9 months of age from Charles River Laboratories (Raleigh, N.C.) and housed in a vivarium until 24 to 26 months of age. All rats were individually housed at 25° C. and maintained on a 12 h light/dark cycle. Food and water were provided ad libitum unless noted otherwise. The rats were examined for health and pathogen-free status throughout the experiments, as well as necropsies at the time of killing.
All rats were screened in a standardized assessment of spatial cognition. This background assessment used the above-described well-established MWM protocol. […] The selected AI rats were tested for their memory of new spatial information in a Radial Arm Maze (RAM) task, under different drug/control treatment conditions: vehicle control, donepezil only, levetiracetam only, and a combination of donepezil and levetiracetam. The RAM task also extended the behavioral assessment to spatial memory using appetitive motivation. We used a protocol that allowed within-subject assessment across drugs at different doses and in combinations (Koh et al., Neuropsychopharmacology, epub. 1-10, (2009)).
The radial maze consisted of eight arms projecting from each side of an octagonal center platform, with food well located at the distal end of each arm. Plexiglasm blocks could be positioned to prevent entry into any arm. Extra-maze cues were provided in the room surrounding the maze and illumination was provided by an overhead light.

[1] = molecular target: synaptic vesicle protein 2A (SV2A) (Homo sapiens, UniProt Q7L0J3); conditions: Noyer et al. 1995; Fuks et al. 2003; Lynch et al. 2004; Gillard et al. 2006; cited from earlier work
Sequence of synaptic vesicle protein 2A (SV2A) (Q7L0J3 whole entry, species assumed): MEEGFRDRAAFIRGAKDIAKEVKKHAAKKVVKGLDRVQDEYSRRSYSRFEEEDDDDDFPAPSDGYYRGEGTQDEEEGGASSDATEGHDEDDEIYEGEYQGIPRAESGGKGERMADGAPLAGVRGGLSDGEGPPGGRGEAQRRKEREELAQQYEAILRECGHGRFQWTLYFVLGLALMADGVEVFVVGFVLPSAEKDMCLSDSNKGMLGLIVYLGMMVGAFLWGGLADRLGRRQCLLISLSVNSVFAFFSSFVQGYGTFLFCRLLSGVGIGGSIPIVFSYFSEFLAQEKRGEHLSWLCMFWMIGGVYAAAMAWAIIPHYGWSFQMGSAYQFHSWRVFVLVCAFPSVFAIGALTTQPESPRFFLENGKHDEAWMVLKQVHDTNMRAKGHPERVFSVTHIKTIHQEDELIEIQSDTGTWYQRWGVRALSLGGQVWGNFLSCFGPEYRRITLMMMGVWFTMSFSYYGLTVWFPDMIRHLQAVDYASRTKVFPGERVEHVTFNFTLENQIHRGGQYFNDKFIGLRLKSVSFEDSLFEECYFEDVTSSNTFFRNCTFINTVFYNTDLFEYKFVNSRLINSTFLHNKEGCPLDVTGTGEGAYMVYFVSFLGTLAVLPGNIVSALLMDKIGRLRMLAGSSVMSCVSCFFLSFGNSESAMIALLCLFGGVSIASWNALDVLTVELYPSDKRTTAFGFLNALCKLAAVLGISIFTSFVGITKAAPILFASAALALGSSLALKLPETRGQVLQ

[2] = cited from earlier work
aMCI subjects [3] = assay: neuropsychological assessment (common cognitive tests); format: in vivo, human; conditions: levetiracetam 125 mg twice a day for two weeks
Protocol: (§1) A within-subjects trial of 8 weeks duration, involving 17 amnestic MCI (aMCI) subjects and 17 age-matched controls with a low dose treatment of levetiracetam is conducted. During the course of the study, each aMCI subject receives both drug and placebo treatments separately in two periods of two weeks each, with the order of treatments among different aMCI subjects counterbalanced (see FIG. 3). Age-matched control subjects treated with placebo serve as a further control. Cognitive testing and fMRI imaging data are obtained from the subjects after each two week period of drug/placebo treatment.
All participants undergo neuropsychological evaluation at the time of assessment for treatment efficacy (Visits 1 and 2), as well as at the Baseline Visit.
The evaluation occurs outside of the scanner and includes the Buschke Selective Reminding Test (Buschke and Fuld, 1974) and the Verbal Paired Associates subtest, the Logical Memory subtest, the Visual Reproduction subtest of the Wechsler Memory Scale-Revised (WMS-R) (Wechsler, 1997), and the Benton Visual Retention Test, as these tasks are particularly sensitive to medial temporal lobe function and early memory problems (Marquis et al., 2002 and Masur et al., 1994). Additionally, subjects are asked to complete tests of more general cognitive function such as tests to assess general mental status, executive function, attention and general naming ability. All neuropsychological tests are administered by a trained research assistant during a 60-minute session. As the three neuropsychological assessments in this study occur within a time period of 8 weeks, different versions of the neuropsychological tests are used to minimize test specific practice effects. Breaks are provided to the subject as needed.
(§2) As described above, the drug treatment period is the two weeks preceding Visit 1 or 2 (with the two week period preceding the other Visit being the placebo phase). For the subjects receiving the drug treatment, half a scored 250 mg tablet of levetiracetam is used to achieve a dose of […], which is approximately 3.6 mg/kg/day (assuming an average adult human weight of 70 kg).

aMCI subjects [4] = assay: explicit 3-alternative forced choice task (lure stimuli), performance; format: in vivo, human; conditions: levetiracetam 125 mg twice a day for two weeks vs placebo, p=0.039
From the text: There are various tests known in the art for assessing cognitive function in humans, for example and without limitation, the clinical global impression of change scale (CIBIC-plus scale); the Mini Mental State Exam (MMSE); the Neuropsychiatric Inventory (NPI); the Clinical Dementia Rating Scale (CDR); the Cambridge Neuropsychological Test Automated Battery (CANTAB); the Sandoz Clinical Assessment-Geriatric (SCAG), the Buschke Selective Reminding Test (Buschke and Fuld, 1974); the Verbal Paired Associates subtest; the Logical Memory subtest; the Visual Reproduction subtest of the Wechsler Memory Scale-Revised (WMS-R) (Wechsler, 1997); or the Benton Visual Retention Test. […]
as §2
The activity of the subject's medial temporal lobe is measured by functional MRI during the subject's participation in an explicit 3-alternative forced choice task, where participants view novel, repeated and similar (“lure”) stimuli. […]

aMCI subjects [5] = assay: fMRI activity of medial temporal lobe subregions during the explicit 3-alternative forced choice task; format: in vivo, human; conditions: levetiracetam 125 mg twice a day for two weeks vs placebo
Protocol: as §1, §2
Imaging data are obtained through high-resolution methods developed in the Stark laboratory. […]
Group data are analyzed using a two-way Analysis of Variance (ANOVA) with trial types and group as fixed factors, and subject as a random factor nested within group. […]

COc1cc2c(cc1OC)C(=O)C(CC1CCN(Cc3ccccc3)CC1)C2 (stereo not shown) [donepezil, 2,3-dihydro-5,6-dimethoxy-2-((1-(phenylmethyl)-4-piperidinyl)methyl)-1H-inden-1-one]
memory performance relative to vehicle control treatment (aged-impaired (AI) rats; donepezil 1 mg/kg/day alone, two-hour delay RAM, t(7)=0, p=1.00): does not significantly improve memory performance
average no. of errors ± standard error of the mean (SEM), retention test (aged-impaired (AI) rats; donepezil 1 mg/kg/day i.p., two-hour delay RAM, AI rats n=8, vehicle control 2.88±0.67): 2.88±0.46
memory performance relative to vehicle control treatment (aged-impaired (AI) rats; donepezil 2 mg/kg/day alone, two-hour delay RAM, t(7)=0.91, p=0.930): does not significantly improve memory performance
average no. of errors ± SEM, retention test (aged-impaired (AI) rats; donepezil 2 mg/kg/day i.p., two-hour delay RAM, AI rats n=8, vehicle control 2.88±0.67): 2.81±0.43

CC[C@@H](C(N)=O)N1CCCC1=O [levetiracetam, (2S)-2-(2-oxopyrrolidin-1-yl) butanamide]
binding to SV2A [1]: binds to a specific site in the CNS: the synaptic vesicle protein 2A (SV2A)
absorption ([2]; after oral administration): rapidly and almost completely absorbed
plasma half-life ([2]; expected in elderly due to decreased renal function): 9 to 10 h
time of peak plasma concentrations ([2]; following oral administration): about 1 hour
plasma half-life ([2]; in vivo): approximately 7±1 hour
time to steady state ([2]; multiple twice-daily dosing): 2 days
bioavailability, effect of food ([2]; oral): not affected by food
performance in Benton Visual Retention Test (aMCI subjects [3]): fail to rescue performance
performance in Buschke Selective Reminding Test—Delayed Recall (aMCI subjects [3]): fail to rescue performance
performance in Verbal Paired Associates Test—Delayed Recall (aMCI subjects [3]): fail to rescue performance
performance in Verbal Paired Associates Test—Recognition (aMCI subjects [3]): fail to rescue performance
effective doses of levetiracetam used in the animal model (aged-impaired (AI) rats; AI rats, given acutely): 5 to 10 mg/kg
memory performance in AI rats (aged-impaired (AI) rats; levetiracetam 2.5 mg/kg/day individually, in the absence of donepezil): does not significantly improve memory performance
average no. of errors ± standard error of the mean (SEM), retention test (aged-impaired (AI) rats; levetiracetam 5 mg/kg/day i.p., one-hour delay RAM, AI rats n=10, vehicle control 2.00±0.42): 0.75±0.32
memory performance relative to vehicle control treatment (aged-impaired (AI) rats; levetiracetam 5 mg/kg/day, one-hour delay RAM, t(9)=2.18, p=0.057): significantly improves memory performance
average no. of errors ± SEM, retention test (aged-impaired (AI) rats; levetiracetam 10 mg/kg/day i.p., one-hour delay RAM, AI rats n=10, vehicle control 2.00±0.42): 0.80±0.27
memory performance relative to vehicle control treatment (aged-impaired (AI) rats; levetiracetam 10 mg/kg/day, one-hour delay RAM, t(9)=2.37, p=0.042): significantly improves memory performance
performance of AI rats in the radial maze task (aged-impaired (AI) rats; levetiracetam 20 mg/kg): fails to improve the performance
performance in the explicit 3-alternative forced choice task (aMCI subjects [4]): improves significantly
entorhinal cortex (EC) activity during memory judgments (aMCI subjects [5]): increases EC activity
DG/CA3 activity during lure stimuli correctly identified as "similar" (aMCI subjects [5]; p=0.037): reduces DG/CA3 hyper-activity
